Dmax and DC50 data for ten molecules are collected here from patent US11427548B2 (Arvinas Operations, Inc., priority 2015, dated 2022).

For this assay, the target named is T1, Androgen Receptor (Homo sapiens, UniProt P10275).
T1 construct: endogenous in cells; host or cells: VCaP cells
T1 sequence (P10275 1-920): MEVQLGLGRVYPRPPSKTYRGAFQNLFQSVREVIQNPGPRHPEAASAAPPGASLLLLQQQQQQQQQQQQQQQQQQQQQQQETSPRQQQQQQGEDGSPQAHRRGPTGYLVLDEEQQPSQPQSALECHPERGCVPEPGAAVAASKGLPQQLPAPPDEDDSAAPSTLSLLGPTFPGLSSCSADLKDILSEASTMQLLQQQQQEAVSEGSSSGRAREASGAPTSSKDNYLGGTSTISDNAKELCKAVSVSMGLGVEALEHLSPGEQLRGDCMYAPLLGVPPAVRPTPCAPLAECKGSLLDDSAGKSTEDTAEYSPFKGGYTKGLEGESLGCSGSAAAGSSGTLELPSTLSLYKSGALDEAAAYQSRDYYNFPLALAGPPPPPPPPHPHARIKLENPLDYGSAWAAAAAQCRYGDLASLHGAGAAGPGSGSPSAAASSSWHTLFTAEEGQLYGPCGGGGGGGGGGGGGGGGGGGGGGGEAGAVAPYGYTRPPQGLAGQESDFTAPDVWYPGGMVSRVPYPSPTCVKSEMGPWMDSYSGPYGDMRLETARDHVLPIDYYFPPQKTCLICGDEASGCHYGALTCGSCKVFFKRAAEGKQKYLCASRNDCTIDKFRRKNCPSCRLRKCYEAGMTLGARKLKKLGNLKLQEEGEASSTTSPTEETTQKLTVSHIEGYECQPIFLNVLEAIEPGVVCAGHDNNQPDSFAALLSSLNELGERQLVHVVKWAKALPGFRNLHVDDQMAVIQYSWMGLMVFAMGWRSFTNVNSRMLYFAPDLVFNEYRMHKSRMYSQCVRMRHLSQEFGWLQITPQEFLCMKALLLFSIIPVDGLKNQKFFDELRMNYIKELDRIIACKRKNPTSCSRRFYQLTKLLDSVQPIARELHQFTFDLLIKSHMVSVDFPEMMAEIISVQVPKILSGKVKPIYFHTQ
Kind of assay: Androgen Receptor ELISA assay (PathScan AR ELISA) in VCaP cells: AR degradation, Dmax and DC50. Type of assay: cell-based. How it is done:
1. Androgen Receptor ELISA Assay.
The protocols used with VCaP cells are described below. The androgen receptor ELISA assay was performed using PathScan AR ELISA (Cell Signaling Catalog #12850) according to the following assay steps:
VCaP cells are seeded at 30,000 cells/well at a volume of 200 μL/well in VCaP assay medium [Phenol red free RPMI (Gibco Cat #11835-030); 5% Charcoal Stripped (Dextran treated) FBS (Omega Scientific, Cat #FB-04); Pen/Strep Life Technologies (Gibco Cat #: 10378-016); 0.1 nM R1881 (Sigma, Cat #R0908) is added upon the start of the assay, not during initial plating of the cells) in Corning 3904 plates. The cells are grown for a minimum of 3 days.
First, cells are dosed with compounds diluted in 0.1% DMSO—use a polypropylene plate according to the following protocol: (1)(i) make 1000× stock plate in DMSO; (ii) 20 mM stock diluted 1/6.7 with DMSO (5 μL+28.3 μL DMSO)=3 mM into row H; (iii) perform serial dilutions in ½ log doses (10 μL of PROTAC+20 μL DMSO) from row H towards row B. Reserve row A for DMSO; (iv) 7 doses total (final concentration in this 1000× plate will be 3 mM, 1 mM, 333 μM, 111 μM, etc). (2)(i) Make 10× stock plate in media; (ii) transfer 2.5 μL of the 1000× stock to a new 10× stock plate (use 12 channel pipet, start at A (DMSO control) work thru H. When 247.5 μL of media is added to this plate, it will serve as a 10× stock; (iii) make media+1 nM R1881 for making 10× stock plate; (iv) add 247.5 μL of media with 1 nM R1881 to each well of the 10× stock plate, mix.
Then 22 μL of 10× stock is added to cells and incubated for 24 h. 1× Cell Signaling Cell lysis buffer is made (Catalogue #9803; comes with the kit)—prepare for 50 μL/well. Keep on ice. Media is aspirated, and 50 μL 1× cell lysis buffer/well is added. The cells are placed on ice for 10 minutes. The solution is mixed and transferred to PCR plate, and centrifuged at 4C for 10 minutes at 4000 rpm.
5 μL is transferred to fresh plate (use immediately or freeze −80 C); 115 μL ELISA Dilutant is added (0.15 ug/ml-0.075 ug/ml; comes with the PathScan ELISA).
Add 100 μL/well AR Elisa; cover and shake, 37 C for 2 hrs; dump, tap, wash 4×200 μL ELISA wash buffer; add 100 μL/well mouse AR detection Ab; cover and shake, 37 C for 1 hr; dump, tap, wash 4×200 μL ELISA wash buffer; add 100 μL/well anti-mouse—HRP conjugated Ab (comes with the kit); cover and shake, 37 C for 30 min; allow TMB reagent to come to room temperature; dump, tap, wash 4×200 μL Elisa wash buffer; tap; add 100 μL TMB, shake 5 min—while watching color. Add the stop reagent when light blue color develops. Add 100 μL Stop solution; shake and read at 450 nm.

[1] abbreviates: read-out: VCaP DC50; concentration that caused 50% Androgen Receptor degradation, VCaP cells.
The mark [2] stands for this setting: VCaP, highest percentage of Androgen Receptor degradation observed, VCaP cells; read-out: VCaP Dmax (%).
Setting [3] is: concentration that caused 50% Androgen Receptor degradation, VCaP cells; read-out: VCaP DC50.

Structures are written as SMILES. Read-outs that look alike come from different tables or passages of the source. A value given as a limit tells only on which side of the number the result lay.

`Cc1ncoc1-c1ccc(CNC(=O)[C@@H]2C[C@@H](O)CN2C(=O)[C@@H](NC(=O)COCCCOCCCCOc2ccc(N3C(=S)N(c4ccc(C#N)c(Cl)c4)C(=O)C3(C)C)cc2)C(C)C)cc1` [Example 39]: the Dmax (VCaP, read-out: VCaP Dmax (%)) was in the range of 26 to 50%. In addition, the DC50 under setting [1] was under 50 nM.
Take `Cc1ncsc1-c1ccc(CNC(=O)[C@@H]2C[C@@H](O)CN2C(=O)[C@@H](NC(=O)COCCCOCCCCOc2ccc(N3C(=S)N(c4ccc(C#N)c(C(F)(F)F)c4)C(=O)C3(C)C)cn2)C(C)(C)C)cc1` [Example 40, (2S,4R)-1-[(2S)-2-[2-(3-{4-[(5-{3-[4-cyano-3-(trifluoromethyl)phenyl]-5,5-dimethyl-4-oxo-2-sulfanylideneimidazolidin-1-yl}pyridin-2-yl)oxy]butoxy}propoxy)acetamido]-3,3-dimethylbutanoyl]-4-hydroxy-N-{[4-(4-methyl-1,3-thiazol-5-yl)phenyl]methyl}pyrrolidine-2-carboxamide]: the Dmax (VCaP, read-out: VCaP Dmax (%)) was 51 to 70%. Moreover, the DC50 under setting [1] was under 50 nM.
In the case of `Cc1ncsc1-c1ccc(CNC(=O)[C@@H]2C[C@@H](O)CN2C(=O)[C@@H](NC(=O)COCCCOCCCCOc2ccc(N3C(=S)N(c4ccc(C#N)c(Cl)c4)C(=O)C3(C)C)cc2F)C(C)(C)C)cc1` [Example 41, (2S,4R)-1-[(2S)-2-{2-[3-(4-{4-[3-(3-chloro-4-cyanophenyl)-5,5-dimethyl-4-oxo-2-sulfanylideneimidazolidin-1-yl]-2-fluorophenoxy}butoxy)propoxy]acetamido}-3,3-dimethylbutanoyl]-4-hydroxy-N-{[4-(4-methyl-1,3-thiazol-5-yl)phenyl]methyl}pyrrolidine-2-carboxamide], the Dmax (VCaP, read-out: VCaP Dmax (%)) is over 71%. For the same molecule, the DC50 under setting [1] was under 50 nM.
On to `COc1cc(N2C(=O)C(C)(C)N(c3ccc(OCCCCOCCCOCC(=O)N[C@H](C(=O)N4C[C@H](O)C[C@H]4C(=O)NCc4ccc(-c5scnc5C)cc4)C(C)(C)C)c(F)c3)C2=S)ccc1C#N` [Example 42, (2S,4R)-1-[(2S)-2-{2-[3-(4-{4-[3-(4-cyano-3-methoxyphenyl)-5,5-dimethyl-4-oxo-2-sulfanylideneimidazolidin-1-yl]-2-fluorophenoxy}butoxy)propoxy]acetamido}-3,3-dimethylbutanoyl]-4-hydroxy-N-{[4-(4-methyl-1,3-thiazol-5-yl)phenyl]methyl}pyrrolidine-2-carboxamide], for which the Dmax under setting [2] fell in the range of 51 to 70%. In addition, the DC50 under setting [3] is under 50 nM.
With `Cc1ncsc1-c1ccc(CNC(=O)[C@@H]2C[C@@H](O)CN2C(=O)[C@@H](NC(=O)COCCCOCCCCOc2ccc(N3C(=S)N(c4ccc(C#N)c(C(F)(F)F)c4)C(=O)C34CCOCC4)cc2)C(C)(C)C)cc1` [Example 43, (2S,4R)-1-[(2S)-2-(2-{3-[4-(4-{3-[4-cyano-3-(trifluoromethyl)phenyl]-4-oxo-2-sulfanylidene-8-oxa-1,3-diazaspiro[4.5]decan-1-yl}phenoxy)butoxy]propoxy}acetamido)-3,3-dimethylbutanoyl]-4-hydroxy-N-{[4-(4-methyl-1,3-thiazol-5-yl)phenyl]methyl}pyrrolidine-2-carboxamide], where the note is “VCaP, read-out: VCaP Dmax (%)”, the Dmax is 51 to 70%. Further, the DC50 under setting [1] is under 50 nM.
Regarding `Cc1ncoc1-c1ccc(CNC(=O)[C@@H]2C[C@@H](O)CN2C(=O)[C@@H](NC(=O)COCCCOCCCCOc2ccc(N3C(=S)N(c4ccc(C#N)c(Cl)c4)C(=O)C3(C)C)cc2F)C(C)(C)C)cc1` [Example 44, (2S,4R)-1-[(2S)-2-{2-[3-(4-{4-[3-(3-chloro-4-cyanophenyl)-5,5-dimethyl-4-oxo-2-sulfanylideneimidazolidin-1-yl]-2-fluorophenoxy}butoxy)propoxy]acetamido}-3,3-dimethylbutanoyl]-4-hydroxy-N-{[4-(4-methyl-1,3-oxazol-5-yl)phenyl]methyl}pyrrolidine-2-carboxamide], for the setting “VCaP, read-out: VCaP Dmax (%)”, the Dmax is over 71%. In addition, under setting [1], the DC50 is under 50 nM.
With `CC(C)(C)[C@H](NC(=O)COCCCOCCCCOc1ccc(N2C(=S)N(c3ccc(C#N)c(Cl)c3)C(=O)C2(C)C)cc1F)C(=O)N1C[C@H](O)C[C@H]1C(=O)NCc1ccc(-c2cnco2)cc1` [Example 45, (2S,4R)-1-[(2S)-2-{2-[3-(4-{4-[3-(3-chloro-4-cyanophenyl)-5,5-dimethyl-4-oxo-2-sulfanylideneimidazolidin-1-yl]-2-fluorophenoxy}butoxy)propoxy]acetamido}-3,3-dimethylbutanoyl]-4-hydroxy-N-{[4-(1,3-oxazol-5-yl)phenyl]methyl}pyrrolidine-2-carboxamide], the Dmax (VCaP, read-out: VCaP Dmax (%)) is over 71%. The DC50 under setting [1] is under 50 nM.
As to `CC(C)(C)[C@H](NC(=O)COCCCOCCCCOc1ccc(N2C(=S)N(c3ccc(C#N)c(Cl)c3)C(=O)C2(C)C)cc1F)C(=O)N1C[C@H](O)C[C@H]1C(=O)NCc1ccc(-c2cncs2)cc1` [Example 46, (2S,4R)-1-[(2S)-2-{2-[3-(4-{4-[3-(3-chloro-4-cyanophenyl)-5,5-dimethyl-4-oxo-2-sulfanylideneimidazolidin-1-yl]-2-fluorophenoxy}butoxy)propoxy]acetamido}-3,3-dimethylbutanoyl]-4-hydroxy-N-{[4-(1,3-thiazol-5-yl)phenyl]methyl}pyrrolidine-2-carboxamide], for the setting “VCaP, read-out: VCaP Dmax (%)”, the Dmax was over 71%. Besides, under setting [1], the DC50 is under 50 nM.
For `CC(C)(C)[C@H](NC(=O)COCCCOCCCCOc1ccc(N2C(=S)N(c3cnc(C#N)c(C(F)(F)F)c3)C(=O)C2(C)C)cc1F)C(=O)N1C[C@H](O)C[C@H]1C(=O)NCc1ccc(-c2cnco2)cc1` [Example 47, (2S,4R)-1-[(2S)-2-(2-{3-[4-(4-{3-[6-cyano-5-(trifluoromethyl)pyridin-3-yl]-5,5-dimethyl-4-oxo-2-sulfanylideneimidazolidin-1-yl}-2-fluorophenoxy)butoxy]propoxy}acetamido)-3,3-dimethylbutanoyl]-4-hydroxy-N-{[4-(1,3-oxazol-5-yl)phenyl]methyl}pyrrolidine-2-carboxamide], the Dmax under setting [2] was 51 to 70%. In addition, under setting [3], the DC50 was under 50 nM.
With `Cc1ncsc1-c1ccc(CNC(=O)[C@@H]2C[C@@H](O)CN2C(=O)[C@@H](NC(=O)COCCCOCCCCOc2ccc(N3C(=S)N(c4cnc(C#N)c(C(F)(F)F)c4)C(=O)C3(C)C)cc2F)C(C)(C)C)cc1` [Example 48, (2S,4R)-1-[(2S)-2-(2-{3-[4-(4-{3-[6-cyano-5-(ttifluoromethyl)pyridin-3-yl]-5,5-dimethyl-4-oxo-2-sulfanylideneimidazolidin-1-yl}-2-fluorophenoxy)butoxy]propoxy}acetamido)-3,3-dimethylbutanoyl]-4-hydroxy-N-{[4-(4-methyl-1,3-thiazol-5-yl)phenyl]methyl}pyrrolidine-2-carboxamide], the Dmax under setting [2] was 51 to 70%. The DC50 under setting [3] was under 50 nM.
